# From paper PMC9673917 (ACS Infectious Diseases, 2022)
# How the values were obtained:
# [1] = test system: spike protein; conditions: Calu-3 cell line; cited from earlier work
# [2] = molecular target: RBD-Fc/ACE2-Strep (Severe acute respiratory syndrome coronavirus 2, UniProt P0DTC2); assay: biochemical; assay type: binding, SARS-CoV-2 S protein; human ACE2
# [3] = test system: Calu-3 and HEK293-ACE2 cells; conditions: Calu-3 and HEK293-ACE2 cell lines
# [4] = test system: ACE2/RBD interaction; conditions: up to 100 μM; cell-free ELISA-type assays; RBD residues 319–541; ref 14 (Bojadzic et al.); cited from earlier work
# [5] = test system: ACE2/RBD interaction; conditions: 150 μM; RBD residues 319–541; ref 11 (Ao et al.); cited from earlier work
# [6] = test system: ACE2/RBD; conditions: read-out: IC50 as ACE2/RBD binding inhibitor, AlphaLISA; ref 16 (Hanson et al.); cited from earlier work
Compound,neutralization efficacy [1],cytotoxicity over active concentration ranges [3],other results
REGN10933: monoclonal antibody that targets the spike protein,potent neutralization efficacy,,
CCCCCCCC/C=C\CCCCCCCC(=O)O [oleic acid],,low to moderate cytotoxicity,IC50 [2]: 35.3 µM
Cc1ccc(C(=O)Nc2ccc(S(=O)(=O)O)c3cc(S(=O)(=O)O)cc(S(=O)(=O)O)c23)cc1NC(=O)c1cccc(NC(=O)Nc2cccc(C(=O)Nc3cc(C(=O)Nc4ccc(S(=O)(=O)O)c5cc(S(=O)(=O)O)cc(S(=O)(=O)O)c45)ccc3C)c2)c1 [suramin],,low to moderate cytotoxicity,inhibition of the ACE2/RBD interaction [4]: did not inhibit; inhibition of ACE2/RBD interaction [5]: around 50%
REGN10987: monoclonal antibody that targets the spike protein,potent neutralization efficacy,,
O=C(O[C@@H]1O[C@@H]2COC(=O)c3cc(O)c(O)c(O)c3-c3c(cc(O)c(O)c3O)C(=O)O[C@H]([C@H]1O)[C@@H]2O)c1cc(O)c(O)c(O)c1 [corilagin],,,IC50 [6]: 5.5 µM
